Assay results from patent publication US5449676A, “Pyridazines” (priority 1991, dated 1995).
Read-outs that look alike come from different tables or passages of the source.

Legend:
[1] = tested on: acetylcholine-induced bronchospasm; assay: protective effect against acetylcholine-induced bronchospasm in conscious guinea pigs; type: in vivo; conditions: oral, 30 minutes after administration, percentage of protected animals
Procedure: In addition, the bronchospasmolytic effect was tested on the "protective effect against acetylcholine-induced bronchospasm in conscious guinea pigs" model:
Guinea pigs (250-350 g) are exposed in a closed Plexiglass cylinder (volume […] ) to an acetylcholine mist (0.06% in 0.9% sodium chloride solution; Heyer Use 77 ultrasonic atomizer) before administration of the substance and twice at an interval of 20 minutes after administration of the substance. The time from the start of atomization to the onset of marked breathing difficulties (in some cases hypoxic convulsion in the lateral position) is measured and called the latency time. An increase in the latency time after administration of the substance to at least three times the average latency time before administration of the substance is regarded as a protective effect, and the number of protected animals in the group is determined. […]
[…] After 30 minutes, the animals are again exposed to the acetylcholine mist and the latency times are measured. An increase in the latency time to at least three times the length is regarded as a protective effect.

PDE IV [2] = assay: inhibition of PDE IV isolated from human polymorphonuclear neutrophilic cells (PMNs); type: biochemical; conditions: for PDE IV hum. PMNs -lg[IC50 ]: negative logarithm of IC50, cAMP 0.5 μmol/l; for [IC50 ] PDE III/[IC50 ] PDE IV PMNs: selectivity ratio, PDE III hum. platelets vs PDE IV hum. PMNs
Excerpt: (§1) The specific inhibition of phosphodiesterase IV (PDE IV=high-affinity cAMP-PDE which cannot be inhibited by cGMP, rolipram-sensitive) is regarded as particularly indicative of an expected bronchospasmolytic and/or antiinflammatory effect. The specificity of the inhibition is moreover described by the ratio [IC50 ]PDE-III /[IC50 ]PDE-IV (PDE III=high-affinity cAMP-PDE which can be inhibited by cGMP) [H. Hidaka et al., Adv. Cycl. Nucl. Res. 13, 145 (1984); TiPS 5, 237 (1984); R. Weishaar et al., J. Med. Chem. 28, (1985); S. A. Harrison et al., Molec. Pharmac. 29, 506 (1986); J. Klein-Tebbe et al., Allergologie 12, 12 (1989); C. Schudt et al., Allergologie 12, 12, (1989); C. Schudt et al., Agents and Action 1991 in press; C. D. Nicholson et al., TiPS 12, (1), 19 (1991)].
(§2) For this reason, the PDE inhibition by the compounds according to the invention was determined on a PDE III isolated from human platelets and on PDE IV isolated from human polymorphonuclear neutrophilic cells (PMNs) and from the dog trachea. Phosphodiesterases III and IV are isolated by chromatography as described by Polson et al., Biochem. Pharmacol. 31, 3403-3406 (1982).
(§3) The substances are dissolved and diluted further in DMSO. 2.1 μl samples from a series of solutions diluted up to 100 fold are mixed with 212 μl of reaction mixture. The reaction mixture contains Hepes (100 mmol/l), DTE (5 mmol/l), MgCl2 (5 mmol/l), CaCl2 (10 μmol/l), BSA fraction V 0.5 mg, ml, cAMP 0.5 μmol/l, 2,8-^3 H-cAMP 250,000 cpm/ml (0.3 μCi/ml, S.A. […]), SV (snake venom) 25 μg/212 μl of test mixture.

[3] = tested on: histamine-induced bronchospasm; assay: histamine-induced bronchospasm in anesthetized guinea pigs; type: in vivo; conditions: 20 μmol/kg; for inhibition in vivo at 20 µmol/kg: Cavia porcellus, iv
Procedure: One histamine spasm before administration of the substance was compared with several histamine spasms after administration of the substance. The test substances were administered intravenously (i.v.) and/or intrajejunally (i.j.).

PDE IV [4] = assay: inhibition of PDE IV isolated from dog trachea; type: biochemical; conditions: for PDE IV dog trachea -lg[IC50 ]: negative logarithm of IC50, cAMP 0.5 μmol/l; for [IC50 ] PDE III/[IC50 ] PDE IV dog tr.: selectivity ratio, PDE III hum. platelets vs PDE IV dog trachea
Excerpt: as §1, §2, §3

PDE III = target: T1, PDE III (Homo sapiens, UniProt Q14432); assay: inhibition of PDE III isolated from human platelets; type: biochemical; conditions: negative logarithm of IC50, cAMP 0.5 μmol/l; for IC50: read-out: PDE III hum. platelets -lg[IC50 ] (converted)
T1 construct: PDE III isolated from human platelets; from tissue; host or cells: human platelets
Excerpt: as §1, §2, §3

tracheal rings = assay: bronchospasmolytic effect on the chain of tracheal rings from guinea pigs in vitro; type: cell-based; conditions: for EC50: Cavia porcellus, negative logarithm of EC50 mol/l, 50% of maximum achievable relaxation, read-out: -lg[EC50 ] (converted); for [EC50 ] theophylline/[EC50 ] substance: ratio of EC50 values, theophylline vs substance
Procedure: The bronchospasmolytic effect of the compounds on the chain of tracheal rings from guinea pigs was tested in vitro as follows:
Thus, a complete dose-effect plot for the test substance is obtained over a period of 20 to 30 minutes. The particular relaxation is expressed as a percentage fraction of the maximum relaxation achievable by administration of (-)isoprenaline (10^-6 mol/l).

[5] = Cavia porcellus, 0.5 h, 100 μmol/kg
[6] = after 1 h, read-out: % inhibition after 1 h of the histamine-induced decrease in Vmax
[7] = average 0-1 h after administration, read-out: % inhibition (0-1 h) of the histamine-induced decrease in Vmax

T1 sequence (Q14432 whole entry): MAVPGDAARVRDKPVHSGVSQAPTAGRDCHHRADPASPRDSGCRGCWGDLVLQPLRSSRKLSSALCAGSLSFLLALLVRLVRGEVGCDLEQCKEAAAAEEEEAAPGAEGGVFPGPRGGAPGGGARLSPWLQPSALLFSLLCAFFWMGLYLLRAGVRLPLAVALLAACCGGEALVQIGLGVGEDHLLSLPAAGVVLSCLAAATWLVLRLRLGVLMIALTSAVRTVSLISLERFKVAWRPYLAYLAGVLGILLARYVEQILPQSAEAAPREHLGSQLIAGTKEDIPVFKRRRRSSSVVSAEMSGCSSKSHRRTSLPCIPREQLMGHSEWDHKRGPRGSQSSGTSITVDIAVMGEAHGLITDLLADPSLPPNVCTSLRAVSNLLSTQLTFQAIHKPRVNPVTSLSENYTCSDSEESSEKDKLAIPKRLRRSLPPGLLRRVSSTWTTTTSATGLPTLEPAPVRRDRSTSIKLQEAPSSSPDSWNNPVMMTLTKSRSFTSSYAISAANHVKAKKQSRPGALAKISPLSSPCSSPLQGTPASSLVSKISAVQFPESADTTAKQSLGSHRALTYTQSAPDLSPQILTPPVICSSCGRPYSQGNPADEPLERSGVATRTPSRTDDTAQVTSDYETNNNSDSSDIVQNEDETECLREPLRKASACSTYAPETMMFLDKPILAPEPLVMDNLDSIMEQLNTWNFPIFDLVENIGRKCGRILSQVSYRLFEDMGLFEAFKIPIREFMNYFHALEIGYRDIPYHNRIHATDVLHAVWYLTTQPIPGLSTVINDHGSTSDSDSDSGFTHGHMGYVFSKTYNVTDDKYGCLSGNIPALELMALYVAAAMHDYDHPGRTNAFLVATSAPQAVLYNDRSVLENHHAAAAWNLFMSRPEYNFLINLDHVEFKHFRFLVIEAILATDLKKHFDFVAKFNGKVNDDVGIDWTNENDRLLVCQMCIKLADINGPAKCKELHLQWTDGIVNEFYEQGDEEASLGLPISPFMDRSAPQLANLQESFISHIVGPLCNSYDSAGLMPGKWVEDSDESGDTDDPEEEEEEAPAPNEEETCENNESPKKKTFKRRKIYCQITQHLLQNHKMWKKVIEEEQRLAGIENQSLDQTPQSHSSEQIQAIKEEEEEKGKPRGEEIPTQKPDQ

Row | Molecule | PDE IV hum. PMNs -lg[IC50 ] (PDE IV [2]) | [IC50 ] PDE III/[IC50 ] PDE IV PMNs (PDE IV [2]) | PDE IV dog trachea -lg[IC50 ] (PDE IV [4]) | [IC50 ] PDE III/[IC50 ] PDE IV dog tr. (PDE IV [4]) | responders at 100 µmol/kg [1, 5] | IC50 (PDE III) | inhibition in vivo at 20 µmol/kg [3, 6] | inhibition in vivo at 20 µmol/kg [3, 7] | EC50 (tracheal rings) | [EC50 ] theophylline/[EC50 ] substance (tracheal rings) | other results
1 | 3-amino-6-(3-cyclopentyloxy-4methoxyphenyl)pyridazine [Serial No. 6] | 6.18 | > 151 | 6.48 | > 304 |  |  |  |  |  |  | % protective effect ([1]; 30 μmol/kg): 50%; % protective effect ([1]; 100 μmol/kg): 70%; % protective effect ([1]; 300 μmol/kg): 80%; % inhibition after 1 h of the histamine-induced decrease in Vmax ([3]; i.v., after 1 h): 20%; % inhibition (0-1 h) of the histamine-induced decrease in Vmax ([3]; i.v., average 0-1 h after administration): 34%; PDE III hum. platelets -lg[IC50 ] (PDE III): < 4.0
2 | COc1ccc(-c2ccc(N)nn2)cc1OCC(C)C [Serial No. 2, 3-amino-6-[4-methoxy-3-(2-methylpropoxy)phenyl]pyridazine] |  |  | < 5.0 | < 20.9 | 80% | 209 µM |  |  |  |  | responders at 30 µmol/kg ([1]; Cavia porcellus, 0.5 h, 30 μmol/kg): 50%
3 | COc1ccc(-c2ccc(N)nn2)cc1OC(C)C [Serial No. 3, 3-amino-6-[4-methoxy-3-(1-methylethoxy)phenyl]pyridazine] |  |  | 5.30 | 43.7 |  |  |  |  |  |  | PDE III hum. platelets -lg[IC50 ] (PDE III): 3.66
4 | COc1ccc(-c2ccc(N)nn2)cc1OC1CCCCC1 [Serial No. 7, 3-amino-6-(3-cyclohexyloxy-4-methoxyphenyl)pyridazine] |  |  | 5.17 | 8.9 |  | 60.3 µM |  |  |  |  | 
5 | COc1ccc(-c2ccc(N)nn2)cc1OC1CCCCCC1 [Serial No. 8, 3-amino-6-(3-cycloheptyloxy-4-methoxyphenyl)pyridazine] |  |  | 5.37 | 18.2 |  | 77.6 µM |  |  |  |  | 
6 | CCOc1ccc(-c2ccc(N)nn2)cc1OCC(C)C [compound 9] |  |  | 5.68 | 60.2 | 65% | 126 µM | 20% | 16% | 9.77 µM | 13.8 | 
7 | CCOc1cc(-c2ccc(N)nn2)ccc1OC(F)F [compound 10] |  |  | 5.37 | 52.5 | 50% | 224 µM | 44% | 38% | 8.32 µM | 16.2 | 
8 | COc1cc(-c2ccc(N)nn2)ccc1OC(F)F [compound 11] |  |  | 5.09 | 22.9 | 80% | 195 µM | 26% | 30% | 4.9 µM | 27.6 | 
9 | CCOc1ccc(-c2ccc(N)nn2)cc1OC(F)F [compound 12] |  |  | 4.42 | 9.6 | 50% | 316 µM |  |  | 4.47 µM | 30.2 | 
10 | COc1ccc(-c2ccc(N)nn2)cc1OCC1CCC1 [compound 13] |  |  | 4.88 | 17.0 | 65% | 224 µM |  |  |  |  | 
11 | CCOc1cc(-c2ccc(N)[n+]([O-])n2)ccc1OC(F)F [compound 19] | 6.58 | 240 | 5.82 | 41.7 |  | 63.1 µM | 81% | 71% | 0.151 µM | 893 | responders at 4 µmol/kg ([1]; Cavia porcellus, 0.5 h, 4 μmol/kg): 50%
12 | COc1cc(-c2ccc(N)[n+]([O-])n2)ccc1OC(F)F [compound 20] | 5.89 | 11.5 | 5.08 | 1.8 |  | 14.8 µM | 48% | 40% | 0.447 µM | 302 | responders at 2 µmol/kg ([1]; Cavia porcellus, 0.5 h, 2 μmol/kg): 50%
13 | Nc1ccc(-c2ccc(OC(F)F)c(OCC3CC3)c2)n[n+]1[O-] [compound 26] | 7.48 | 550 |  |  |  | 18.2 µM | 12% | 15% | 1 µM | 135 | responders at 10 µmol/kg ([1]; Cavia porcellus, 0.5 h, 10 μmol/kg): 70%
